Source: US20250205184A1, “COLD COMPRESS SPRAY FOR RELIEVING GOUT AND PREPARATION METHOD THEREOF” (priority 2023, published 2025)

Test system: ankle joint swelling of rats caused by sodium urate crystals
Experiment: Acute plantar/ankle joint swelling of rat caused by sodium urate crystals
Assay type: in vivo
Conditions: X ± SD, n = 9
Description: A process of preparing sodium urate crystallization and a sodium urate solution is as follows: 2 g of uric acid are added into 400 mL of boiling water to obtain an uric acid solution; a pH value of the uric acid solution is adjusted to 7.4 by using NaOH (1N) to obtain an adjusted solution; the adjusted solution is heated to a temperature of 95° C. to obtain a heated solution; then the heated solution is cooled and stirred gently at a room temperature to obtain a cooled solution; the cooled solution is allowed to stand for 4-6 hours at 4° C. to precipitate flocculent precipitates; microcrystalline sodium urate is obtained by filtering, and the microcrystalline sodium urate is sterilized at a high temperature of 80° C. 1000 milligrams (mg) of the sodium urate are ground fully to obtain sodium urate powder, and the sodium urate powder is added into 20 mL of sterile physiological saline to prepare a suspension with a concentration of 50 g/L (5%).
A process of grouping and administration is as follows: rats are adaptively fed for 3 days and randomly divided into 7 groups based on body weights. The 7 groups include a model control group, a positive drug indomethacin group, a first group, a second group, and a third group, a first comparison group, and a second comparison group. One hour before inflammation, the positive drug indomethacin group is administered with indomethacin through gavage (10 mL/kg). The first group is immediately administered with the cold compress spray (0.1 mL for each rat) obtained in the embodiment 1 after modeling; the second group is immediately administered with the cold compress spray (0.1 mL for each rat) obtained in the embodiment 2 after modeling; the third group is immediately administered with the cold compress spray (0.1 mL for each rat) obtained in the embodiment 3 after modeling; the first comparison group is immediately administered with the cold compress spray (0.1 mL for each rat) obtained in the comparative embodiment 1 after modeling; the second comparison group is immediately administered with the cold compress spray (0.1 mL for each rat) obtained in the comparative embodiment 2 after modeling; and the model control group is immediately administered with an excipient (0.1 mL for each rat) after modeling. Furthermore, after inflammation, the first group, the second group, the third group, the first comparison group, and the second comparison group are administered with corresponding cold compress sprays again after measurements of joint swelling at 6, 12, and 24 hours.
A process of modeling is as follows: an area around an ankle joint of a right hind limb of each rat is marked with a marker pen, and a joint circumference is measured as a normal value using a plantar volume meter. 0.2 mL of 5% sodium urate suspension are injected (the joint of each rat is extended and a needle is inserted at 45 degrees) into a joint cavity on a dorsal side of the right ankle joint of each rat of each group. Here, the modeling of each group is completed.
Results of joint swelling are as follows: a volume of the right ankle joint of each rat at 6, 12, 24, and 48 hours after inflammation is measured.

For `COc1ccc2c(c1)c(CC(=O)O)c(C)n2C(=O)c1ccc(Cl)cc1` [Indomethacin, indomethacin], the “Volume of after modeling, 6 h” value (right ankle joint volume 6 h after inflammation) was 2.42 ± 0.15 mL, the “Volume of after modeling, 12 h” value (right ankle joint volume 12 h after inflammation) was 2.29 ± 0.30 mL and the “Volume of after modeling, 24 h” value (right ankle joint volume 24 h after inflammation) was 2.18 ± 0.09 mL. For the same compound, the “Volume of after modeling, 48 h” value (right ankle joint volume 48 h after inflammation) was 2.16 ± 0.14 mL and the Volume before modeling (right ankle joint volume, baseline before sodium urate injection) was 2.12 ± 0.21 mL.
